In data set [1] the target is Sodium-dependent serotonin transporter (Homo sapiens, UniProt P31645). The data set can be described thus: biochemical.
Description: Inhibition of [3H]citalopram uptake at human 5HTT expressed in HEK293 cells
The target of data set [2] is Sodium-dependent noradrenaline transporter (Homo sapiens, UniProt P23975). The data set can be described thus: biochemical.
Description: Inhibition of [3H]nisoxetine reuptake at human NET expressed in HEK293 cells
The nature of data set [3]: Partition coefficient, log D at pH 7.4. The conditions noted are these: octanol/water. Format: physicochemical.
The nature of data set [4]: pKa, dissociation constant of the compound. It counts as physicochemical.
Data set [5] concerns the target T1, Sodium-dependent dopamine transporter (Homo sapiens, UniProt Q01959).
Description: (§1) Inhibition of [3H]dopamine reuptake at human DAT expressed in HEK293 cells
Data set [6] concerns the target T2, Histamine H1 receptor (Homo sapiens, UniProt P35367).
In data set [7] the target is T2, Histamine H1 receptor. The data set can be described thus: Inhibition of histamine H1 receptor.
The target of data set [8] is T1, Sodium-dependent dopamine transporter. The conditions noted are these: hek293.
Description: as §1
Data set [9] addresses T2, Histamine H1 receptor. The data set can be described thus: Inhibition of histamine H1 receptor at 10 uM.
The test system of data set [10] is Caco-2. The data set can be described thus: Permeability from apical to basolateral side of human Caco-2 cell membrane at 10 uM. It counts as ADME, cell-based. To be noted: caco-2, 10 µM. On the technique in general: Passage across Caco-2 layers is used to estimate intestinal permeability.
Data set [11] concerns Caco-2. The data set can be described thus: Permeability from basolateral to apical side of human Caco-2 cell membrane at 10 uM. It counts as ADME, cell-based. The conditions noted are these: caco-2, 10 µM.
The test system of data set [12] is MDCK. The data set can be described thus: Permeability from apical to basolateral side of P-gp expressing MDCK cell membrane at 10 uM. Format: ADME, cell-based, Canis lupus familiaris. The conditions noted are these: dog.
The subject of data set [13] is MDCK. The data set can be described thus: Permeability from basolateral to apical side of P-gp expressing MDCK cell membrane at 10 uM. Format: ADME, cell-based, Canis lupus familiaris. The conditions noted are these: dog.
Data set [14] in a line: Metabolic stability in human liver microsomes. Format: ADME, Microsome. (In general: Liver microsomes are a subcellular fraction often used to study metabolism.)
The nature of data set [15]: Metabolic stability in human hepatocytes. It counts as ADME, cell-based, Liver, Hepatocyte.
Data set [16] addresses T3, Cytochrome P450 1A2 (Homo sapiens, UniProt P05177).
T3 sequence (P05177 whole entry): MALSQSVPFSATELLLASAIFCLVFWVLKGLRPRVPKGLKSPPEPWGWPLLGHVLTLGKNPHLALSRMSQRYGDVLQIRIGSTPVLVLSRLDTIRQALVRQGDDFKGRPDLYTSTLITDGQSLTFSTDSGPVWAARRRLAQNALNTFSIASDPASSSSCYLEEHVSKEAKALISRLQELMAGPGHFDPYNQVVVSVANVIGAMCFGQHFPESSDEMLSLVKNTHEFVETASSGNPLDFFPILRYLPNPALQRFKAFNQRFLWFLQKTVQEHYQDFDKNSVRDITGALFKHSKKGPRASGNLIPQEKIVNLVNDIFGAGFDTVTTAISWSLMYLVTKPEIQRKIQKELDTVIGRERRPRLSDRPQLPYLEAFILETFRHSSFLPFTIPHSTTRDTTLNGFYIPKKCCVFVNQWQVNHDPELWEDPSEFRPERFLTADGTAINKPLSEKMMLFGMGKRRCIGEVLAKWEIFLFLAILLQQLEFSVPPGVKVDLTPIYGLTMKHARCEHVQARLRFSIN
The data set can be described thus: Inhibition of CYP1A2. Format: ADME.

Data set [17] addresses Cytochrome P450 2C9 (Homo sapiens, UniProt P11712). The data set can be described thus: Inhibition of CYP2C9. It counts as ADME.
In data set [18] the target is Cytochrome P450 2C19 (Homo sapiens, UniProt P33261). The data set can be described thus: Inhibition of CYP2C19. Format: ADME.
Data set [19] concerns the target Cytochrome P450 2D6 (Homo sapiens, UniProt P10635). The data set can be described thus: Inhibition of CYP2D6. Format: ADME.
The target in data set [20] is Cytochrome P450 3A4 (Homo sapiens, UniProt P08684). The data set can be described thus: Inhibition of CYP3A4. Format: ADME.
In data set [21] the target is Voltage-gated inwardly rectifying potassium channel KCNH2 (Homo sapiens, UniProt Q12809). The data set can be described thus: Displacement of [3H]dofetilide from human ERG. For orientation: Loss of bound radioactivity is the signal in a displacement assay; it reports binding, not function.
Data set [22] in a line: Inhibition of sodium channel site 2.
Data set [23] is described as follows: Inhibition of calcium channel L type at diltiazem site.
For data set [24], the system named is Rattus norvegicus. The data set can be described thus: Increase in noradrenaline level in prefrontal cortex interstitial fluid of rat at 10 mg/kg, sc. It counts as functional. To be noted: route subcutaneous.
Data set [25] relates to Rattus norvegicus. The data set can be described thus: Increase in 5-hydroxytryptamine level in prefrontal cortex interstitial fluid of rat at 10 mg/kg, sc. The conditions noted are these: route subcutaneous. Format: functional.
For data set [26], the target named is Sodium-dependent serotonin transporter (Rattus norvegicus, UniProt P31652). The data set can be described thus: Inhibition of rat 5HTT expressed in HEK293 cells. Format: cell-based.
In data set [27] the target is Norepinephrine transporter (Rattus norvegicus, UniProt Q9WTR4). The data set can be described thus: Inhibition of rat NET expressed in HEK293 cells. Format: cell-based.

Experimental findings from ChEMBL document CHEMBL1144811, “Design and synthesis of morpholine derivatives. SAR for dual serotonin & noradrenaline reuptake inhibition” (Bioorg Med Chem Lett, 2008) are described below.

Activity calls are given as the source filed them.

Sodium-dependent noradrenaline transporter, sequence (P23975 whole entry): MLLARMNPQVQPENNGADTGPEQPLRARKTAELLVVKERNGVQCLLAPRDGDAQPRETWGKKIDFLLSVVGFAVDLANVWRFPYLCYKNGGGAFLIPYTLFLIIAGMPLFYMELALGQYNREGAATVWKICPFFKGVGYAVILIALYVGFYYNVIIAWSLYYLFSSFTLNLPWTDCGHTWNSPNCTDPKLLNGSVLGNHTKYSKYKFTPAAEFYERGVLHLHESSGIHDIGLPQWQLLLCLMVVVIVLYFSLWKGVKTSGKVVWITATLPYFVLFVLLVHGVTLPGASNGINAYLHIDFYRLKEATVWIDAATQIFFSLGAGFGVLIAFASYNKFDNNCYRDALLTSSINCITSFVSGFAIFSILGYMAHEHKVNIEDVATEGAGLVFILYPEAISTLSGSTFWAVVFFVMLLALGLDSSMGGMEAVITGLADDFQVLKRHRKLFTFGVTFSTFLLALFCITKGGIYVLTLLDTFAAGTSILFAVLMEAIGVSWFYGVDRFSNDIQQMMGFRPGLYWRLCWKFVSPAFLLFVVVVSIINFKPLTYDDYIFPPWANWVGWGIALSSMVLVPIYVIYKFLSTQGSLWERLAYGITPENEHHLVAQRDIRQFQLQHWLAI
T1 sequence (Q01959 whole entry): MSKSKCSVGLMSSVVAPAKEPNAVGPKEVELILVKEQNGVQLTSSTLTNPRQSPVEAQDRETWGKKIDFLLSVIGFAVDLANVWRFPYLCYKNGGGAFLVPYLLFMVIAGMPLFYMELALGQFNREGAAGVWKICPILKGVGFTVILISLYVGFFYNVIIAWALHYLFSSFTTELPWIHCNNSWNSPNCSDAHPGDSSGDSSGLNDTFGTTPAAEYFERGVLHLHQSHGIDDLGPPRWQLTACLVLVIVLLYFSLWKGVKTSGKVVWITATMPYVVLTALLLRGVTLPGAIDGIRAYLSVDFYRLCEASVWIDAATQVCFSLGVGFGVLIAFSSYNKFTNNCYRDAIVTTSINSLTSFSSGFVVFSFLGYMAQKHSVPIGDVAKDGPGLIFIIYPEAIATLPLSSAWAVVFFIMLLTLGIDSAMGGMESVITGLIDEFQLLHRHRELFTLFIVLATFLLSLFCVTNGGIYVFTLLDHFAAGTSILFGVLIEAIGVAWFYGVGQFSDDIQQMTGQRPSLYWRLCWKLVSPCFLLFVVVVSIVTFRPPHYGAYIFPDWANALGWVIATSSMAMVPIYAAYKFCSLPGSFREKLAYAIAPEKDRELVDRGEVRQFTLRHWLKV
T2 sequence (P35367 whole entry): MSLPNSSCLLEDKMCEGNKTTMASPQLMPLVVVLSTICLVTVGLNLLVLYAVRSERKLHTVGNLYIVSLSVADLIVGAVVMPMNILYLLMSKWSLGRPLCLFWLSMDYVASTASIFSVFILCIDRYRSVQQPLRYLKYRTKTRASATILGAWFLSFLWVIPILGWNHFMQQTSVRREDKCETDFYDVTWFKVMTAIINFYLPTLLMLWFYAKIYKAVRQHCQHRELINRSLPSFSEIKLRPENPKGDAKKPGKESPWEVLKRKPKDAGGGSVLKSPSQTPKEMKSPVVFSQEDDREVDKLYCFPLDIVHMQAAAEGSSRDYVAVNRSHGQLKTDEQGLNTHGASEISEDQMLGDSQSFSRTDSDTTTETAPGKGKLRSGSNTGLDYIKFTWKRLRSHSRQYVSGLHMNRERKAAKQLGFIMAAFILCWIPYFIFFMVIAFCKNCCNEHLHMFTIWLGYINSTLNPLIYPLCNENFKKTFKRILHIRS
Sodium-dependent serotonin transporter (Homo sapiens, UniProt P31645), sequence (P31645 whole entry): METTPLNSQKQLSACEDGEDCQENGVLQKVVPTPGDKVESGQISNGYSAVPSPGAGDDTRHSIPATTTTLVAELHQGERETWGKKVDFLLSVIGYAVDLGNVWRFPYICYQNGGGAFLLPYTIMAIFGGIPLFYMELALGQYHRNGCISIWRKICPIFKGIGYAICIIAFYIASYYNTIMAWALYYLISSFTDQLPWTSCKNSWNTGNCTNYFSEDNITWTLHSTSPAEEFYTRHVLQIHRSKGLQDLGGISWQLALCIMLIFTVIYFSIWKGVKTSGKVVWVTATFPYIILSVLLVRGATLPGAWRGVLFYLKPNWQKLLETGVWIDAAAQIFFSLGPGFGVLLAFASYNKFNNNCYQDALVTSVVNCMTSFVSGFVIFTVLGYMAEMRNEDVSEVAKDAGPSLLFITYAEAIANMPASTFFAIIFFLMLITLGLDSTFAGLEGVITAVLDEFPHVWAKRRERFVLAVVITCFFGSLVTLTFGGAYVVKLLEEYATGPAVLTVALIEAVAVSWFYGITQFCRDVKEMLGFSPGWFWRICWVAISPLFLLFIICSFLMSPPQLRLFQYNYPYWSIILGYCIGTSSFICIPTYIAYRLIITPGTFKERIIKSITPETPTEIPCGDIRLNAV
Cytochrome P450 2C19, sequence (P33261 whole entry): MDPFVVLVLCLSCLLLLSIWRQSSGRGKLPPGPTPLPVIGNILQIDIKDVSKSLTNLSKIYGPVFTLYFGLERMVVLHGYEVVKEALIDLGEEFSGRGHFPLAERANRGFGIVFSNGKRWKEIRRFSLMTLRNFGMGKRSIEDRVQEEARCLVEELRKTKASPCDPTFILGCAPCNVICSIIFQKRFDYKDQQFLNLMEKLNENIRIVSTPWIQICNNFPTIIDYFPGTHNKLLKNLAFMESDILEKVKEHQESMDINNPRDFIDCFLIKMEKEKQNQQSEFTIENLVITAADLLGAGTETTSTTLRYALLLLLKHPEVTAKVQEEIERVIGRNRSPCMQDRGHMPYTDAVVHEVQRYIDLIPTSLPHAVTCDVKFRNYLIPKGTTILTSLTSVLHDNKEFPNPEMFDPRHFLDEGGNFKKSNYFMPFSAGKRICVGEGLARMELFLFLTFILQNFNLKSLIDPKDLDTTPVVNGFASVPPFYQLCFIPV
Cytochrome P450 2C9, sequence (P11712 whole entry): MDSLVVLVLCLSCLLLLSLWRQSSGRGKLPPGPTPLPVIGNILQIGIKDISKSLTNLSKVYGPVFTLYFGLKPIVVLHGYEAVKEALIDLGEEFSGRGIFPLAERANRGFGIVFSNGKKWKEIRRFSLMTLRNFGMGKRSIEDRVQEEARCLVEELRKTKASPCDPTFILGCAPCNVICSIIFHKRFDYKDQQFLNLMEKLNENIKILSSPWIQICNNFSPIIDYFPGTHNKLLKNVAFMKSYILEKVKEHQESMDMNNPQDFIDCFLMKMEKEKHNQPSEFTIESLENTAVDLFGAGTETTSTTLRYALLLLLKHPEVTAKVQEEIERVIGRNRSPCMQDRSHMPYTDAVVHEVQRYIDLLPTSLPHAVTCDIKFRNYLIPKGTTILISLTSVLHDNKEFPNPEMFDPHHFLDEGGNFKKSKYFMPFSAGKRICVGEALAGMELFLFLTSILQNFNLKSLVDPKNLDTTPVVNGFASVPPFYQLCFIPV
Voltage-gated inwardly rectifying potassium channel KCNH2, sequence (Q12809 whole entry): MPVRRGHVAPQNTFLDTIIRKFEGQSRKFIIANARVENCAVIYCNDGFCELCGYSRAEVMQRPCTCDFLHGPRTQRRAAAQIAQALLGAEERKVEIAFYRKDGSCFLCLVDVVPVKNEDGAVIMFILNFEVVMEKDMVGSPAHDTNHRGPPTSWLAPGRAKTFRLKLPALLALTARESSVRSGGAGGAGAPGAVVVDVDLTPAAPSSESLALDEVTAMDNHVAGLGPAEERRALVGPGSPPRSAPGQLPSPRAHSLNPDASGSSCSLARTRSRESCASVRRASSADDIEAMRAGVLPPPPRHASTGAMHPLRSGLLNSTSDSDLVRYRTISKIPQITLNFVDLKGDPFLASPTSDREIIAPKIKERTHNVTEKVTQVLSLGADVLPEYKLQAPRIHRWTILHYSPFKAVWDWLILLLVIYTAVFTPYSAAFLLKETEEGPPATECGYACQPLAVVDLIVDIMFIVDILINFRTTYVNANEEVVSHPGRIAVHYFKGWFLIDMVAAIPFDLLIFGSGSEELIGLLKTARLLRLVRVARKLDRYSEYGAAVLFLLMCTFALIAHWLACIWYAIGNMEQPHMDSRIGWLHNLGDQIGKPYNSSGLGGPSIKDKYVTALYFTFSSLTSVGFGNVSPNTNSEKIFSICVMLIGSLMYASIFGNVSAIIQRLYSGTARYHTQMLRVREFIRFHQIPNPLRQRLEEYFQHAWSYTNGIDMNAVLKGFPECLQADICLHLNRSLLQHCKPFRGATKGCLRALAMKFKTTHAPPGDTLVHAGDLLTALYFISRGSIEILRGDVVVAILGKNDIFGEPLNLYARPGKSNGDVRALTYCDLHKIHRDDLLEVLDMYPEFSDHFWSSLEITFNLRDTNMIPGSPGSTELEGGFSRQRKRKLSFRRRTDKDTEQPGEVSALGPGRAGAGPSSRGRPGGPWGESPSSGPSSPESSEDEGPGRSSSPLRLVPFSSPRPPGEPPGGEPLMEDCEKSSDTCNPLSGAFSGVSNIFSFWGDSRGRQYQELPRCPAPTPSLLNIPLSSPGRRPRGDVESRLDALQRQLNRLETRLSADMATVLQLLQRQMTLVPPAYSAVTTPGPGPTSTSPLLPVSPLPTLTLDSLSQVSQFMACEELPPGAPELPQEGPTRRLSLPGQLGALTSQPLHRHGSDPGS
Cytochrome P450 2D6, sequence (P10635 whole entry): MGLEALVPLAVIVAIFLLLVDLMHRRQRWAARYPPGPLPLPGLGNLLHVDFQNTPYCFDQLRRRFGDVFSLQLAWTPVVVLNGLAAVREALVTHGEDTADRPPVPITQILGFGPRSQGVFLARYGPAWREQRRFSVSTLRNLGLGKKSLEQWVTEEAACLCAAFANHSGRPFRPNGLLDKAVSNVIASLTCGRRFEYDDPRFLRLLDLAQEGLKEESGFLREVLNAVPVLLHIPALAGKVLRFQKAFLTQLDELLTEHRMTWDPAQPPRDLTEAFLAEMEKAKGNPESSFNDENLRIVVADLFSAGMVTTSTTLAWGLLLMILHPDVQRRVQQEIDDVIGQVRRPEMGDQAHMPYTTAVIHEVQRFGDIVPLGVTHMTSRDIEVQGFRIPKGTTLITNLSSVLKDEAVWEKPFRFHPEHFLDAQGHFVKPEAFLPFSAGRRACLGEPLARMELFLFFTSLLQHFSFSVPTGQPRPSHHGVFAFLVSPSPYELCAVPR

On to `COc1cc(Cl)ccc1O[C@@H](c1ccccc1C)[C@@H]1CNCCO1`, for which the Ki was found to be 70 nM in data set [1] and 84 nM in data set [2].

As for `COc1cc(Cl)ccc1OC(c1ccccc1)C1CNCCO1` (racemic; syn), the log distribution coefficient (logD) in data set [3] was found to be 1.9. Also, in [4], the pKa is 7.7. For the same compound, affinity in data set [5] was put at a Ki of 5050 nM.

Take `COc1cc(Cl)ccc1O[C@H](c1ccccc1)[C@H]1CNCCO1`: the Ki was found to be 1790 nM in [5] and 26 nM in data set [6].

As to `Fc1cccc(O[C@H](c2ccccc2)[C@H]2CNCCO2)c1F`, the Ki in data set [5] was found to be 380 nM; in data set [6] it was 10 nM; in data set [1] it was 12 nM; in [2], 130 nM.

With `COc1ccc(O[C@@H](c2ccccc2)[C@@H]2CNCCO2)c(Cl)c1`, the Ki is 1090 nM in data set [5], 96 nM in data set [1] and 28 nM in [2].

Take `Cc1cc(F)ccc1O[C@@H](c1ccccc1)[C@@H]1CNCCO1`: the Ki in [5] amounted to 1250 nM; in data set [1], 185 nM; in [2], 18 nM. Also, in [7], the outcome was inactive.

In the case of `COc1cc(Cl)ccc1O[C@@H](c1ccc(C)cc1)[C@@H]1CNCCO1`, the Ki came to 1650 nM in data set [5], 88 nM in data set [1] and 180 nM in data set [2].

Regarding `CCOc1c(Cl)cccc1OC(c1ccccc1)C1CNCCO1` (racemic; anti), the figures for the inhibition constant (Ki) in [5], in [1] and in data set [2] were over 10000 nM, 340 nM and 1490 nM, respectively.

`Fc1ccc(O[C@@H](c2ccccc2)[C@@H]2CNCCO2)c(Cl)c1` registered an inhibitory constant (Ki) in data set [5] of 1170 nM. Besides, the outcome in [7] was inactive.

Regarding `COc1cc(F)ccc1O[C@H](c1ccccc1)[C@H]1CNCCO1`, the results for the inhibitory constant (Ki) in data set [6], in data set [1] and in [2] were 10 nM, 22 nM and 610 nM, respectively.

Consider `CCOc1cc(Cl)ccc1OC(c1ccccc1)C1CNCCO1` (racemic; anti), for which the inhibition constant (Ki) in data set [5] came to 1670 nM; in [1] it was 220 nM; in [2] it was 390 nM.

For `Clc1cccc(O[C@@H](c2ccccc2)[C@@H]2CNCCO2)c1Cl`, the Ki in data set [5] was 420 nM; in data set [1] it was 100 nM; in [2] it was 17 nM.

On to `COc1cc(Cl)ccc1O[C@@H](c1ccc(F)cc1)[C@@H]1CNCCO1`, for which the Ki in data set [1] was determined as 62 nM; in data set [2], 29 nM.

Take `COc1cc(C(F)(F)F)ccc1O[C@@H](c1ccccc1)[C@@H]1CNCCO1`: the Ki in [1] was found to be 41 nM; in data set [2], 160 nM.

For `COc1cc(F)ccc1O[C@@H](c1ccccc1)[C@@H]1CNCCO1`, the Ki in [5] worked out at 3080 nM; in data set [1] it was 740 nM; in [2] it was 6 nM. In addition, in data set [7], the outcome was inactive.

Turning to `Fc1cccc(O[C@@H](c2ccccc2)[C@@H]2CNCCO2)c1F`, the values for the inhibition constant (Ki) in data set [5], in data set [1] and in data set [2] were 2600 nM, 3390 nM and 10 nM, respectively. Also, in data set [7], the outcome was inactive.

Compound `COc1cc(Cl)ccc1OC(c1ccccc1)C1CNCCO1` (racemic; anti) yielded an inhibition constant (Ki) in data set [5] of 2200 nM.

As to `COc1cc(Cl)ccc1O[C@@H](c1cccc(F)c1)[C@@H]1CNCCO1`, the Ki in [5] is 10800 nM; in [1], 58 nM; in [2], 9 nM.

Regarding `c1ccc([C@H](Oc2cccc3c2OCC3)[C@@H]2CNCCO2)cc1`, the Ki in data set [1] came out at 1800 nM; in data set [2], 12 nM. In addition, in data set [7], the outcome was inactive.

Compound `COc1cc(Br)ccc1O[C@@H](c1ccccc1)[C@@H]1CNCCO1` came in with a Ki in data set [1] of 30 nM.

With `COc1cc(C#N)ccc1O[C@@H](c1ccccc1)[C@@H]1CNCCO1`, the Ki in data set [1] worked out at 110 nM; in [2], 210 nM.

For `CCOc1c(Cl)cccc1OC(c1ccccc1)C1CNCCO1` (racemic; syn), the Ki was over 10000 nM in [8], 240 nM in data set [1] and 275 nM in [2].

For `c1ccc([C@@H](Oc2cccc3c2OCC3)[C@H]2CNCCO2)cc1`, the inhibition constant (Ki) in data set [5] amounted to 5750 nM; in [6] it was 10 nM; in data set [1], 20 nM; in data set [2], 350 nM.

For `Cc1cc(F)ccc1O[C@H](c1ccccc1)[C@H]1CNCCO1`, the Ki in data set [5] is 950 nM; in data set [6] it was 10 nM; in [1], 34 nM; in data set [2], 860 nM.

Regarding `Fc1ccc(O[C@H](c2ccccc2)[C@H]2CNCCO2)c(Cl)c1`, the Ki in data set [5] was 760 nM; in data set [6], 10 nM.

`COc1cc(Cl)ccc1O[C@@H](c1ccccc1)[C@@H]1CNCCO1` had an inhibition in data set [9] of under 20%. For the same compound, the Papp in data set [10] is reported as 18 10^-6/cm; in data set [11], 16 10^-6/cm; in data set [12], 22 10^-6/cm; in data set [13], 35 10^-6/cm. For the same compound, the half-life in data set [14] was over 2 h; in data set [15], 3.1 h. For the same compound, the IC50 in [16], in data set [17], in data set [18], in data set [19] and in data set [20] was over 29000 nM each time. The Ki is 3300 nM in [21]; 1200 nM in data set [22]; 2000 nM in data set [23]; 59 nM in data set [26]; 6 nM in data set [27]; 1570 nM in data set [5]. For the same compound, the Activity in data set [24] came out at 170%; in data set [25], 160%.

`CCOc1cc(Cl)ccc1OC(c1ccccc1)C1CNCCO1` (racemic; syn): the values for the Ki in [5], in data set [1] and in data set [2] were 1540 nM, 60 nM and 15 nM, respectively.

In the case of `COc1cc(Cl)ccc1O[C@@H](c1ccccc1F)[C@@H]1CNCCO1`, the Ki in [1] is 70 nM; in data set [2], 22 nM.

With `COc1cc(Cl)ccc1O[C@@H](c1cccc(C)c1)[C@@H]1CNCCO1`, the results for the Ki in data set [1] and in [2] were 69 nM and 16 nM, respectively.

In general, Ki refers to a measure of affinity in units of concentration, obtained from inhibition or displacement. The logD is the decadic logarithm of the distribution of all forms, ionised or not, between an organic phase and buffer at a given pH. A low value points to a more hydrophilic compound. Broadly, the pKa is the pH at which an ionisable group is half protonated. Read a high pKa as a weaker acid or stronger base. Broadly, the inhibition is the change of the read-out against control, counted positive when it falls. Higher therefore signals a strong effect. By half-life is commonly meant the time needed for the level to fall by half in the phase considered. Higher therefore signals slow loss. One may read the IC50 as the concentration at which inhibition is half-maximal.
